Measured values: paper PMC4666649, “The Influence of the 1-(3-Trifluoromethyl-Benzyl)-1H-Pyrazole-4-yl Moiety on the Adenosine Receptors Affinity Profile of Pyrazolo[4,3-e][1,2,4]Triazolo[1,5-c]Pyrimidine Derivatives” (PLoS ONE, 2015)
Counter-ions that a name gives are not always drawn. Like-named read-outs stand apart in the source and are kept apart here.

Columns and labels:
hA3 AR [1] = molecular target: T1, hA3 AR (Homo sapiens, UniProt P0DMS8); test: Radioligand binding at human A3 ARs, displacement of [3H]HEMADO, membranes of transfected CHO cells; details: for Ki, hA2a/hA3 (selectivity) / Ki, hA2b/hA3 (selectivity) / Ki, hA1/hA3 (selectivity): ratio of Ki values, for reference compounds from literature affinities (Borea et al. unless otherwise indicated)
T1 construct: expressed in transfected cells; host or cells: CHO cells, stably transfected
T1 sequence (P0DMS8 1-318): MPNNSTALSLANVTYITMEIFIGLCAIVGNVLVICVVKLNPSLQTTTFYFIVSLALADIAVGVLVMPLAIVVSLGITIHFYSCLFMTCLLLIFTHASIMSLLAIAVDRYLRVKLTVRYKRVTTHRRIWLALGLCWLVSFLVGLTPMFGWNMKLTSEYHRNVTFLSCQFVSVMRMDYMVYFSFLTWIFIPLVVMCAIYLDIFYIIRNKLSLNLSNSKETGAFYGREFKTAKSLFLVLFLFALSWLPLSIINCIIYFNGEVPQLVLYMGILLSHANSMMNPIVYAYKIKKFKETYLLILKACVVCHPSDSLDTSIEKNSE
Description: (§1) All pharmacological methods followed the procedures as described earlier. […] In brief, membranes for radioligand binding were prepared from CHO cells stably transfected with human AR subtypes in a two-step procedure. In a first low-speed step (1,000 x g) cell fragments and nuclei were removed. The crude membrane fraction was sedimented from the supernatant at 100,000 x g. The membrane pellet was resuspended in the buffer used for the respective binding experiments (50 mM Tris/HCl buffer pH 7.4 for hA1 and hA2A AR; 50 mM Tris/HCl, 10 mM MgCl2, 1 mM EDTA, pH 8.25 for hA3 AR), frozen in liquid nitrogen and stored at -80°C.
(§2) Ki-values from competition experiments were calculated with the program SCTFIT.

hA1 AR = molecular target: T2, hA1 AR (Homo sapiens, UniProt P30542); test: Radioligand binding at human A1 ARs, displacement of [3H]CCPA, membranes of transfected CHO cells
T2 sequence (P30542 1-326): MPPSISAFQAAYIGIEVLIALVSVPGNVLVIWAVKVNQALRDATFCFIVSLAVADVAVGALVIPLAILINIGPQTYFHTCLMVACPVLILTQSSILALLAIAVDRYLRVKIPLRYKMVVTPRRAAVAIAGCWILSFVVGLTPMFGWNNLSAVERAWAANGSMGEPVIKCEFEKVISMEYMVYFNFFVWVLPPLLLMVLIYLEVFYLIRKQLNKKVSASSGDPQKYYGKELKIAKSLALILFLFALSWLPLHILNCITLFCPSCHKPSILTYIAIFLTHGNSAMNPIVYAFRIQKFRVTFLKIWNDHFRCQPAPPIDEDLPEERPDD
Description: as §1, §2

hA2B AR = molecular target: T3, hA2B AR (Homo sapiens, UniProt P29275); test: Inhibition of NECA-stimulated adenylyl cyclase activity in CHO cells expressing hA2B ARs; type: biochemical
T3 construct: expressed in transfected cells; host or cells: CHO cells, stably transfected
T3 sequence (P29275 1-332): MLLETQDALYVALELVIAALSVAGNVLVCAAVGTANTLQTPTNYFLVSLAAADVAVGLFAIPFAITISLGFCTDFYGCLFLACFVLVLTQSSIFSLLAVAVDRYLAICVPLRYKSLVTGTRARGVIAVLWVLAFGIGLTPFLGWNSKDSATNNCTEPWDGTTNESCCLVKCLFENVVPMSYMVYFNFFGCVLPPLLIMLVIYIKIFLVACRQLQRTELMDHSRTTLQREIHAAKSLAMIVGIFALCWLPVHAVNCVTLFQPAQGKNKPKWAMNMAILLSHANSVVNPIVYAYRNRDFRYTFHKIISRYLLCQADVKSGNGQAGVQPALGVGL
Description: All pharmacological methods followed the procedures as described earlier. […] For the measurement of adenylyl cyclase activity only one high speed centrifugation of the homogenate was used. The resulting crude membrane pellet was resuspended in 50 mM Tris/HCl, pH 7.4 and immediately used for the cyclase assay.
The procedure was carried out as described previously with minor modifications. […] Membranes were incubated with about 150,000 cpm of [α-^32P]ATP for 20 min in the incubation mixture as described without EDTA and NaCl.

hA2A AR [2] = molecular target: T4, hA2A AR (Homo sapiens, UniProt P29274); test: Radioligand binding at human A2A ARs, displacement of [3H]NECA, membranes of transfected CHO cells
T4 construct: expressed in transfected cells; host or cells: CHO cells, stably transfected
Description: as §1, §2

hA3 AR [3] = molecular target: T1, hA3 AR; details: cited from earlier work; for Ki: reference xanthines
hA2A AR [4] = molecular target: T4, hA2A AR; details: reference xanthines; cited from earlier work
[5] = competition for [3H]HEMADO, total binding, single experiment (S1 Fig), read-out: Ki, hA3 AR, representative single experiment
[6] = displacement of specific [3H]-HEMADO binding, CHO cells, geometric means with 95% confidence limits, read-out: hA3 AR (Ki nM)
[7] = displacement of specific [3H]-CCPA binding, CHO cells, n = 3–6, geometric means with 95% confidence limits, read-out: hA1 AR (Ki nM)
[8] = displacement of specific [3H]-NECA binding, CHO cells, geometric means with 95% confidence limits, read-out: hA2A AR (Ki nM)

T4 sequence (P29274 whole entry): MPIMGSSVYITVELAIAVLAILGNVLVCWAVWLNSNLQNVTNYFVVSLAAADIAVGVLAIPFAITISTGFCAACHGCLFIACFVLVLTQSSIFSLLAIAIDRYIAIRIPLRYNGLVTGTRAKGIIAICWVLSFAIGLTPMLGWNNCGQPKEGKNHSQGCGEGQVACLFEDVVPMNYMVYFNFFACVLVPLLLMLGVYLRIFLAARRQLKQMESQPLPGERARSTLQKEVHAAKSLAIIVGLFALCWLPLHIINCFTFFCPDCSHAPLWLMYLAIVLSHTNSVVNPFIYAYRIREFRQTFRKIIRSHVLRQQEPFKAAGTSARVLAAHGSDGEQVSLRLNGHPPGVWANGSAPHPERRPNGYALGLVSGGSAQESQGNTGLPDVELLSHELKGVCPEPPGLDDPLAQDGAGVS

| SMILES | Ki (hA3 AR [1]; [6]) [nM] | Ki (hA1 AR; [7]) [nM] | Ki (hA2B AR) [nM] | Ki (hA2A AR [2]; [8]) [nM] | melting point [°C] | Ki, hA2a/hA3 (selectivity) (hA3 AR [1]) | Ki, hA2b/hA3 (selectivity) (hA3 AR [1]) | Ki, hA1/hA3 (selectivity) (hA3 AR [1]) | also measured |
| --- | --- | --- | --- | --- | --- | --- | --- | --- | --- |
| Cn1cc2c(nc(NC(=O)Nc3ccccc3)n3nc(-c4cnn(Cc5cccc(C(F)(F)F)c5)c4)nc23)n1 [compound 4, 1-{8-Methyl-2-[1-(3-trifluoromethyl-benzyl)-1H-pyrazol-4-yl]-8H-pyrazolo[4,3-e][1,2,4]triazolo [1,5-c]pyrimidin-5-yl}-3-phenylurea] | 46.7 | 3890 | > 10000 | 2460 | – | – | – | – | Ki (hA3 AR [1]; [5]): 39 nM |
| Cn1cc2c(nc(NC(=O)c3ccccc3)n3nc(-c4cnn(Cc5cccc(C(F)(F)F)c5)c4)nc23)n1 [compound 5, N-{8-Methyl-2-[1-(3-trifluoromethyl-benzyl)-1H-pyrazol-4-yl]-8H-pyrazolo[4,3-e][1,2,4]triazolo[1,5-c]pyrimidin-5-yl}-benzamide] | 138 | 25500 | > 10000 | > 100000 | – | – | – | – | – |
| COc1ccc(CC(=O)Nc2nc3nn(C)cc3c3nc(-c4cnn(Cc5cccc(C(F)(F)F)c5)c4)nn23)cc1 [compound 7] | 53 | 4390 | > 10000 | 20500 | 178 | – | – | – | – |
| CCCCC#Cc1nc(NC)c2ncn([C@@H]3O[C@H](CO)[C@@H](O)[C@H]3O)c2n1 [[^3H]HEMADO, [^3H]2-(1-Hexynyl)-N-methyladenosine] | – | – | – | – | – | – | – | – | Kd (hA3 AR [3]; radioligand used at 1 nM, read-out: KD of radioligand at A3 AR): 1.1 nM |
| Cn1cc2c(nc(N)n3nc(-c4cnn(Cc5cccc(C(F)(F)F)c5)c4)nc23)n1 [compound 3, 8-methyl-2-[1-(3-trifluoromethyl-benzyl)-1H-pyrazol-4-yl]-8H-pyrazolo[4,3-e][1,2,4]triazolo[1,5-c]pyrimidin-5-ylamine] | 2360 | 703 | > 10000 | 8280 | 125 | 4 | 4 | – | hA3 AR (Ki nM) (hA3 AR [1]; displacement of specific [3H]-HEMADO binding, CHO cells, geometric means with 95% confidence limits): almost inactive; Ki (hA1 AR; competition with [3H]CCPA, total binding, single experiment (S2 Fig), read-out: Ki, hA1 AR, representative single experiment): 764 nM; hA1 AR (Ki nM) (hA1 AR; displacement of specific [3H]-CCPA binding, CHO cells, n = 3–6, geometric means with 95% confidence limits): almost inactive; hA2B AR (Ki nM) (hA2B AR): almost inactive; Ki (hA2A AR [2]; competition with [3H]NECA, total binding, single experiment (S3 Fig), read-out: Ki, hA2A AR, representative single experiment): 6820 nM; hA2A AR (Ki nM) (hA2A AR [2]; displacement of specific [3H]-NECA binding, CHO cells, geometric means with 95% confidence limits): almost inactive |
| CCCn1c(=O)c2[nH]c(-c3cnn(Cc4cccc(C(F)(F)F)c4)c3)nc2n(CCC)c1=O [compound 33, reference compound] | – | – | – | – | – | 4 | – | 3 | Ki (hA3 AR [3]): 56 nM; Ki (hA2A AR [4]): 230 nM |
| Cn1cc2c(nc(NC(=O)Cc3ccccc3)n3nc(-c4cnn(Cc5cccc(C(F)(F)F)c5)c4)nc23)n1 [compound 6, N-{8-Methyl-2-[1-(3-trifluoromethyl-benzyl)-1H-pyrazol-4-yl]-8H-pyrazolo[4,3-e][1,2,4]triazolo[1,5-c]pyrimidin-5-yl}-phenyl-acetamide] | 11 | > 100000 | > 10000 | > 100000 | 190 | > 9091 | > 909 | – | Ki (hA3 AR [1]; [5]): 17 nM |
| Cn1c(=O)c2[nH]c(-c3cnn(Cc4cccc(C(F)(F)F)c4)c3)nc2n(C)c1=O [compound 1, 8-(1-(3-(trifluoromethyl)benzyl)-1H-pyrazol-4-yl)-1,3-dimethyl-1H-purine-2,6(3H,7H)-dione, reference compound] | – | – | – | – | – | 1 | – | 1 | – |
| CCCn1c(=O)c2[nH]c(-c3cnn(Cc4cccc(F)c4)c3)nc2n(CCC)c1=O [compound 36, reference compound] | – | – | – | – | – | 3 | – | 1 | Ki (hA3 AR [3]): 150 nM; Ki (hA2A AR [4]): 400 nM |
| Cn1cc2c(nc(NC(=O)Nc3ccncc3)n3nc(-c4ccco4)nc23)n1 [MRE3005F20 (HCl), reference compound] | – | – | – | – | – | 10000 | 25000 | 35000 | – |
